Experimental data reported in ChEMBL document CHEMBL5465560, “Selectivity Literature for EUbOPEN Chemogenomic Library” (2024).
Blank lines part the entries; values can stand above or below the compound they belong to.

How the values were obtained:
[1] = biological target: Tyrosine-protein kinase Fes/Fps (Homo sapiens) (UniProt P07332); experiment: Selectivity interaction (ActivX KiNativ screen (kinase selectivity in THP-1 cell lysates)) EUB0000639a FES; assay type: subcellular; conditions: lysate
[2] = biological target: T1, Serine/threonine-protein kinase D3 (Homo sapiens) (UniProt O94806); conditions: at 10 µM
T1 sequence (whole entry): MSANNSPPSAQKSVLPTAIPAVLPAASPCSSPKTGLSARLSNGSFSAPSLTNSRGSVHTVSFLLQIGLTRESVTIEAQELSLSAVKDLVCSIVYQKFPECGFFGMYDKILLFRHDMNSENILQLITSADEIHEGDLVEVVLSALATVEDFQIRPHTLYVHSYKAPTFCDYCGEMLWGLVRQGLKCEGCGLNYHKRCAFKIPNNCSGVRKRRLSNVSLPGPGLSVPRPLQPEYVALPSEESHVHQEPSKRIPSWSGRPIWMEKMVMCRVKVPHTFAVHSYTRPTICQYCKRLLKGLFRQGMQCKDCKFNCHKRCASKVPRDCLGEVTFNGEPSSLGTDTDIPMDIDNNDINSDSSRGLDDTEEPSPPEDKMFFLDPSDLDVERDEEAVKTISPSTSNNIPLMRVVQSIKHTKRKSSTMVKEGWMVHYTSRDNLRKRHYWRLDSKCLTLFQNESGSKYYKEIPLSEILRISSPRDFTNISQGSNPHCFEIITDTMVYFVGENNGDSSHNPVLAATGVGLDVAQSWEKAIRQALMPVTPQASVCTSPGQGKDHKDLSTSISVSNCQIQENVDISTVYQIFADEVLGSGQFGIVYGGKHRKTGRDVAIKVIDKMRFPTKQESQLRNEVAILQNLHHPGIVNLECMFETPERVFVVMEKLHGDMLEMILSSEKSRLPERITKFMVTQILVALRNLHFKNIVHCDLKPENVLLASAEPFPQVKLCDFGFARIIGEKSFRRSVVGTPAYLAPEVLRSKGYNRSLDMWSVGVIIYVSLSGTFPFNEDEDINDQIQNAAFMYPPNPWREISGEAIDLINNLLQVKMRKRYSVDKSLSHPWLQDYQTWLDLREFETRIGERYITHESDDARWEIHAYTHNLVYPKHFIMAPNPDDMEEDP

[3] = biological target: Receptor-interacting serine/threonine-protein kinase 2 (Homo sapiens, UniProt O43353); conditions: at 10 µM
[4] = biological target: T2, TGF-beta receptor type-1 (Homo sapiens) (UniProt P36897); experiment: Selectivity interaction (KinomeScan (DiscoverX)) EUB0000595a TGFBR1; conditions: at 10 µM
T2 sequence (whole entry): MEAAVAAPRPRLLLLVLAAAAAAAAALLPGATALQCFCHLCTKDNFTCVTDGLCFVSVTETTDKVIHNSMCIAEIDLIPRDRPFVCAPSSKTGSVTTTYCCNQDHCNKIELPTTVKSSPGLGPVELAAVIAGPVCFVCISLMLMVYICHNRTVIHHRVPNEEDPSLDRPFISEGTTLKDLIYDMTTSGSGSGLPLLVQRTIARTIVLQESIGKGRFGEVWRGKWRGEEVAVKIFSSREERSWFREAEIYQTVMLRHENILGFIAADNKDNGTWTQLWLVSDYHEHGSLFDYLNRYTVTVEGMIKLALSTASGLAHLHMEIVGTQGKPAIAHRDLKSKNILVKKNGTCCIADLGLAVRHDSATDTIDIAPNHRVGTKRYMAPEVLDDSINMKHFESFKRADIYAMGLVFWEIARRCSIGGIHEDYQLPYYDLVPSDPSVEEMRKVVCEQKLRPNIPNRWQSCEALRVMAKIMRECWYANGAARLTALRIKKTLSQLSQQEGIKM

[5] = biological target: Protein kinase C theta type (Homo sapiens, UniProt Q04759); experiment: Selectivity interaction (KinomeScan (DiscoverX)) EUB0000229b PRKCQ; conditions: at 10 µM
[6] = biological target: Serine/threonine-protein kinase 35 (Homo sapiens) (UniProt Q8TDR2); experiment: Selectivity interaction (KinomeScan (DiscoverX)) EUB0000229b STK35; conditions: at 10 µM
[7] = biological target: T3, Receptor-interacting serine/threonine-protein kinase 4 (Homo sapiens) (UniProt P57078); experiment: Selectivity interaction (KinomeScan (DiscoverX)) EUB0001079a RIPK4; conditions: at 1 µM
T3 sequence (whole entry): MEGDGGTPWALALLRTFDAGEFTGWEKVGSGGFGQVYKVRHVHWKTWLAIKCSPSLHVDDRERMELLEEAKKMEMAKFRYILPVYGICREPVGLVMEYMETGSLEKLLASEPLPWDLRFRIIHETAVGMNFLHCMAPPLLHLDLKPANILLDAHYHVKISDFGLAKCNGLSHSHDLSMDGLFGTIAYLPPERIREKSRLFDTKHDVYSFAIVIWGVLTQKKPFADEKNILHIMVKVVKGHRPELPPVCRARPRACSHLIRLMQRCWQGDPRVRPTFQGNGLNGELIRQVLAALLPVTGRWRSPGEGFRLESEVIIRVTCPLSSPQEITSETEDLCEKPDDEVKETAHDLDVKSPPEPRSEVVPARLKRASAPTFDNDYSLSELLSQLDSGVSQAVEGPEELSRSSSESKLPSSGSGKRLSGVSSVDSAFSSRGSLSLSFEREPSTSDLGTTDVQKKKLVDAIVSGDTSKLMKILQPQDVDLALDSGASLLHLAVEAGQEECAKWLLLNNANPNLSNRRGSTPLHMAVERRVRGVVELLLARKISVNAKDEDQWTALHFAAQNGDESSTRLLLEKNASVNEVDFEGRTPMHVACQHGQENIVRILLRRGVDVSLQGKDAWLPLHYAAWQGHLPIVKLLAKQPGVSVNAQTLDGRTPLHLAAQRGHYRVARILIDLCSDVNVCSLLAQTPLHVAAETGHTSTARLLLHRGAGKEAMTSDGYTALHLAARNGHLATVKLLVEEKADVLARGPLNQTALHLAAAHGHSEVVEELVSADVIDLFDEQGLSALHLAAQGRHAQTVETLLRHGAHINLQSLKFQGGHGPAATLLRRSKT

[8] = biological target: Tyrosine-protein kinase ABL1 (Homo sapiens, UniProt P00519); experiment: Selectivity interaction (ActivX KiNativ screen (ex vivo kinase selectivity in human PBMCs)) EUB0001619a ABL1; assay type: cell-based; conditions: PBMC, at 1 µM
[9] = biological target: MAP kinase-activated protein kinase 2 (Homo sapiens, UniProt P49137); experiment: Selectivity interaction (KinomeScan (DiscoverX)) EUB0000607a MAPKAPK2; conditions: at 10 µM
MAP kinase-activated protein kinase 2, sequence (P49137 whole entry, looked up): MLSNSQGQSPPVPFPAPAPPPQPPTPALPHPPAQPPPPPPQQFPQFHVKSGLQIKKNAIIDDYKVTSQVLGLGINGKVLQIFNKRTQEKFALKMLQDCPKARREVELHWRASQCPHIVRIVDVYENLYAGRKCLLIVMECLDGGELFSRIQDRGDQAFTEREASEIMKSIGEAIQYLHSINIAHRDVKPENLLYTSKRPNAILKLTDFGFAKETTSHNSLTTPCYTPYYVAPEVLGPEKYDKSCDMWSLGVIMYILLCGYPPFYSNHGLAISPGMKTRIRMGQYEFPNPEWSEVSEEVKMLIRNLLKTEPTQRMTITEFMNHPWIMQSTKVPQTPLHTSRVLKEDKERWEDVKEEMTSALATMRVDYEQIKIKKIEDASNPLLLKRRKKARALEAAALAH

Tyrosine-protein kinase Fes/Fps (Homo sapiens), sequence (P07332 whole entry): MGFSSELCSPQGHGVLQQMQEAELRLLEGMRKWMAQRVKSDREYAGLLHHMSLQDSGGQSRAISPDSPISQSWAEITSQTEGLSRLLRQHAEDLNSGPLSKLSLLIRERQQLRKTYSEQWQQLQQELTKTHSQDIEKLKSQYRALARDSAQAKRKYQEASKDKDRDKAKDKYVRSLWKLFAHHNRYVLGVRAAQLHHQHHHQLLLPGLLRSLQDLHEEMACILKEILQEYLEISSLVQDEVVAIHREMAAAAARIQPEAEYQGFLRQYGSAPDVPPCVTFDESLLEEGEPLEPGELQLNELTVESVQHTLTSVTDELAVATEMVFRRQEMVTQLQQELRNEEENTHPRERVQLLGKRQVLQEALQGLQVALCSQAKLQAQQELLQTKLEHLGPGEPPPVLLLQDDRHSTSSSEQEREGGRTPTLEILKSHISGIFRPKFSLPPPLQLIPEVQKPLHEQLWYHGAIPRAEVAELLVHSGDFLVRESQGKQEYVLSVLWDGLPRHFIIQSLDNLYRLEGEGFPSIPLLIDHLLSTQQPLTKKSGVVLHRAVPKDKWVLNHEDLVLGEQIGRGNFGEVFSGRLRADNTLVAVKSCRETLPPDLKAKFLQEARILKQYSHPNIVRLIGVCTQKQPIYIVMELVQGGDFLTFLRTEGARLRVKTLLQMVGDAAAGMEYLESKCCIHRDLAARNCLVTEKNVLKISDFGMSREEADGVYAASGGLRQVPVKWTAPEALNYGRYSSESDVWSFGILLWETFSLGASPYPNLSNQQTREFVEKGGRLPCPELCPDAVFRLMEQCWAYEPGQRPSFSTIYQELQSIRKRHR
Receptor-interacting serine/threonine-protein kinase 2, sequence (O43353 whole entry): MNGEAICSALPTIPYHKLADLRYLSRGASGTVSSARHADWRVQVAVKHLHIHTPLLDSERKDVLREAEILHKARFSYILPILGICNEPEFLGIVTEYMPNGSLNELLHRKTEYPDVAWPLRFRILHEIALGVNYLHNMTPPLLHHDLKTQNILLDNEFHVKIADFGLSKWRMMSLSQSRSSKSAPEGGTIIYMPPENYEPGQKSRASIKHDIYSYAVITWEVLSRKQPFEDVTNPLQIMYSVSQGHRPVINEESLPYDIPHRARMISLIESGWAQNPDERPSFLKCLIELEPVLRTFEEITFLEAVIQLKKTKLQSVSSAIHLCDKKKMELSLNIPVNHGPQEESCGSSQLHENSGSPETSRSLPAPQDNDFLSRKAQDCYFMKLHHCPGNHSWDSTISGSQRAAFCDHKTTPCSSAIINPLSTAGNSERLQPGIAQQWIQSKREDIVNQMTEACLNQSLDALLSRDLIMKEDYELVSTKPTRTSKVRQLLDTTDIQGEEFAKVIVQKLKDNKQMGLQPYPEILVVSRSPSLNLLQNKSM
Protein kinase C theta type, sequence (Q04759 whole entry, looked up): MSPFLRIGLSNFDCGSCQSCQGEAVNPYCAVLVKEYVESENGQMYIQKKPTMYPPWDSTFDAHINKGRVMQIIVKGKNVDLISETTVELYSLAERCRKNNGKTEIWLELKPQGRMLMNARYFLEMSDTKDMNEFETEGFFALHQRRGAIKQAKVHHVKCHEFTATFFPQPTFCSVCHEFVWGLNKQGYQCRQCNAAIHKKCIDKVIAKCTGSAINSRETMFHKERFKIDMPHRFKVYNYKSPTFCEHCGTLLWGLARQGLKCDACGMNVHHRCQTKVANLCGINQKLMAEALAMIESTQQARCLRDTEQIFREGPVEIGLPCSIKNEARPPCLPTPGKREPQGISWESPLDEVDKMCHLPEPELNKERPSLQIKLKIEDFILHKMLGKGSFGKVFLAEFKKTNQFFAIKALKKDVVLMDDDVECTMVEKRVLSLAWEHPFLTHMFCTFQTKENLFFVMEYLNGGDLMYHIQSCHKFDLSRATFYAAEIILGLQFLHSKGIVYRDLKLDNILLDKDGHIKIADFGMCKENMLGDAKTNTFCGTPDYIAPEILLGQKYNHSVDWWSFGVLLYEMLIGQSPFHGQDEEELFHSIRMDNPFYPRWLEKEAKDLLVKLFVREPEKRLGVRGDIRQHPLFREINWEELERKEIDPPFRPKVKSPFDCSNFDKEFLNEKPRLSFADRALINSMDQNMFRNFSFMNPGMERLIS
Tyrosine-protein kinase ABL1, sequence (P00519 whole entry): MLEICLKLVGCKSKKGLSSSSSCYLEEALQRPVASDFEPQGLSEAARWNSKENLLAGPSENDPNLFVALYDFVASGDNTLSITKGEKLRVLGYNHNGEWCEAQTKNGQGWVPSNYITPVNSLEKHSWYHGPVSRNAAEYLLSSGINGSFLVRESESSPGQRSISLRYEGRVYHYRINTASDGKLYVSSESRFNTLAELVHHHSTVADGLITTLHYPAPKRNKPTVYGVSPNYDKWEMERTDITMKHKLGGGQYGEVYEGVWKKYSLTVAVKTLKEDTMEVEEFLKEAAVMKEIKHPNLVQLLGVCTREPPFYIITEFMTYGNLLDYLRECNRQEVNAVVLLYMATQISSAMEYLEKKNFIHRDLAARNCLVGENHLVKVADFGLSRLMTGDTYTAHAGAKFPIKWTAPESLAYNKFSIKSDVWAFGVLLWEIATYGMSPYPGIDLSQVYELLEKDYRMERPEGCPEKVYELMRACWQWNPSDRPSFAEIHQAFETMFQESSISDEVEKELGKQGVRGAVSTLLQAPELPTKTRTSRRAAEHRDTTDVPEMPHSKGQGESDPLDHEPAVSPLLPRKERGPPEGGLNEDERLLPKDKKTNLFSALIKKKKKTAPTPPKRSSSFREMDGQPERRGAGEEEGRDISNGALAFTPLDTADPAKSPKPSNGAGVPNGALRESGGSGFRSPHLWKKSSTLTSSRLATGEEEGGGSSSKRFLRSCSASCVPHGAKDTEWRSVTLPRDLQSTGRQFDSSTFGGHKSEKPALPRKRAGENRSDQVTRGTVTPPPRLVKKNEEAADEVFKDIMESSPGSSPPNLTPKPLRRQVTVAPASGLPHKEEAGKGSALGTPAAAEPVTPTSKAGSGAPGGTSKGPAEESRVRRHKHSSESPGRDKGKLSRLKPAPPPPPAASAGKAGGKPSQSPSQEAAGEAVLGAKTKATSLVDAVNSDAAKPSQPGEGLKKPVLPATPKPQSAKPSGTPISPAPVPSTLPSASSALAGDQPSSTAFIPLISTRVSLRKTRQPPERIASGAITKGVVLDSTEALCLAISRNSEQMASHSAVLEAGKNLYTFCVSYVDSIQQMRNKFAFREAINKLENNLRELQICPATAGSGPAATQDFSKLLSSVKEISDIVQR
Serine/threonine-protein kinase 35 (Homo sapiens), sequence (Q8TDR2 whole entry): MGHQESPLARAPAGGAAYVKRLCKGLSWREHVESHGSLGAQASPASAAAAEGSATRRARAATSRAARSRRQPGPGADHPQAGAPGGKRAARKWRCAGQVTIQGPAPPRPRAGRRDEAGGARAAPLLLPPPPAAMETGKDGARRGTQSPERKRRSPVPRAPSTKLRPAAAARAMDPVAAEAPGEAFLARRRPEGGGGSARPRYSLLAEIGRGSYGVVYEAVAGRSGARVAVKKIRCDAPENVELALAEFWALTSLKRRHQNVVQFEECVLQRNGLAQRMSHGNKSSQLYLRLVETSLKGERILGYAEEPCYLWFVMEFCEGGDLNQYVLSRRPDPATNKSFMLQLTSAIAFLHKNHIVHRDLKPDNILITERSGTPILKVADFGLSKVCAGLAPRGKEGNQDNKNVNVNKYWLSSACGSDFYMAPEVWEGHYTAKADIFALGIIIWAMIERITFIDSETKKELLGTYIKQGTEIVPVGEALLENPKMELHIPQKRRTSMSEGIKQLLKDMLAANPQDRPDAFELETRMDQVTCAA

% of inhibition ([1]; at 0.01 µM): 0.3%
% of inhibition ([1]; at 0.04 µM): 2.2%
% of inhibition ([1]; at 0.2 µM): 5.7%
% of inhibition ([1]; at 1 µM): 0.6%
% of inhibition ([1]; at 5 µM): -23.7%
Structure (SMILES): CC[C@@H]1[C@H](F)C(=O)N[C@@H]1COc1nccc2cc(C(N)=O)c(OC)cc12 [ZIMLOVISERTIB]

% of control [2]: 100%
% of control [3]: 100%
Structure (SMILES): CCN(CC)CCCCNc1ncc2cc(-c3cc(OC)cc(OC)c3)c(NC(=O)NC(C)(C)C)nc2n1

Structure (SMILES): COCC(=O)NC/C=C/c1ccc2ncnc(Nc3ccc(Oc4ccc(C)nc4)c(C)c3)c2c1 [CP-724714]
% of control [4]: 100%

Structure (SMILES): COc1cc(N(C)c2ccnc3ccc(C(F)(F)F)cc23)cc(OC)c1OC
% binding [5]: 66%
% binding [6]: 90%

Structure (SMILES): Nc1cnc(N2CCc3cc(S(=O)(=O)Nc4c(F)cc(Cl)cc4F)cc(N4CCCC4=O)c32)nc1 [TP-020n]
% of control [7]: 76%

Structure (SMILES): N#Cc1cccc(-c2c[nH]c3ncnc(N4CCOCC4)c23)c1
% of inhibition [8]: -1%

Structure (SMILES): CNC(=O)Nc1ccc(-c2nc(N3CC4CCC(C3)O4)c3cnn(C4CCC5(CC4)OCCO5)c3n2)cc1
% of control [9]: 82%
